Source: article PMC12680861, “Comparative analysis of LJ-4378 and tirzepatide in mouse models of obesity and weight regain” (Archives of Pharmacal Research, 2025)

System: plasma protein
Assay: Plasma protein binding, Rapid Equilibrium Dialysis (RED)
Type: in vitro ADME, mouse
Conditions: 10 μM, 37 °C, 4 h
Experimental: The plasma protein binding of LJ-4378 was evaluated using the Rapid Equilibrium Dialysis (RED) method with 100% plasma from human (Biochemed, BC22089NCP), rat (Innovative, IRT-N), and mouse (Biochemed, 029-APSC-MP), all treated with sodium citrate as an anticoagulant. The RED device (ThermoFisher Scientific, #89809) and reusable base plate (ThermoFisher Scientific, #89811) were used with an 8 K MWCO membrane. Test compounds were added to plasma at a final concentration of 10 μM and dialyzed against phosphate-buffered saline (PBS, pH 7.4; Hyclone, #SH30256.01) at 37 °C for 4 h. After incubation, equal volumes of plasma and PBS samples were mixed with blank PBS and blank plasma, respectively, followed by the addition of acetonitrile containing chlorpropamide (TRC, C424800) as the internal standard. […] All measurements were performed in duplicate with a deviation of less than 15% between replicates. The free fraction (% Free) was calculated as (concentration in buffer chamber/concentration in plasma chamber) × 100, and the bound fraction (% Bound) was obtained by subtracting % Free from 100. In cases where measurements were unstable, deviations greater than 15% were allowed.

SMILES: CCCCC#Cc1nc(N)c2ncn([C@@H]3SC[C@@H](O)[C@H]3O)c2n1 [LJ-4378]
- Plasma free fraction (% Free), Mouse: 12.7%
